Source: US11026943B2, “Aminoquinoline derivatives and uses thereof” (UNIVERSITY OF DELHI, priority 2012, dated 2021)

Assay: Solubility (solvent listed in compound tables)
Assay type: physicochemical
[1] = solvents listed for the compound

Structure (SMILES)	SOLUBILITY [1]	SOLUBILITY (solvent named, Table 3)
OCCCNc1nccc(NCCCCNc2ccnc3cc(Cl)ccc23)n1 [MT1-157]	MeOH, DMSO	–
OCCCCNc1nccc(NCCCCNc2ccnc3cc(Cl)ccc23)n1 [MT1-158]	MeOH, DMSO	–
OCCCCCNc1nccc(NCCCCNc2ccnc3cc(Cl)ccc23)n1 [MT1-162]	MeOH, DMSO	–
OCCCCCCNc1nccc(NCCCCNc2ccnc3cc(Cl)ccc23)n1 [MT1-163]	MeOH, DMSO	–
Cc1cc(NCCNc2ccnc3cc(Cl)ccc23)nc(NCCO)n1 [MT1-185]	MeOH, DMSO	–
Cc1cc(NCCNc2ccnc3cc(Cl)ccc23)nc(NCCCO)n1 [MT1-186]	MeOH, DMSO	–
Cc1cc(NCCNc2ccnc3cc(Cl)ccc23)nc(NCCCCO)n1 [MT1-189]	MeOH, DMSO	–
Cc1cc(NCCNc2ccnc3cc(Cl)ccc23)nc(NCCCCCO)n1 [MT1-190]	MeOH, DMSO	–
Cc1cc(NCCNc2ccnc3cc(Cl)ccc23)nc(NCCCCCCO)n1 [MT1-191]	MeOH, DMSO	–
Cc1cc(NCCCCNc2ccnc3cc(Cl)ccc23)nc(NCCO)n1 [MT1-192]	MeOH, DMSO	–
Cc1cc(NCCCCNc2ccnc3cc(Cl)ccc23)nc(NCCCO)n1 [MT1-193]	MeOH, DMSO	–
Cc1cc(NCCCCNc2ccnc3cc(Cl)ccc23)nc(NCCCCO)n1 [MT1-194]	MeOH, DMSO	–
Cc1cc(NCCCCNc2ccnc3cc(Cl)ccc23)nc(NCCCCCO)n1 [MT1-195]	MeOH, DMSO	–
Cc1cc(NCCCCNc2ccnc3cc(Cl)ccc23)nc(NCCCCCCO)n1 [MT1-196]	MeOH, DMSO	–
Clc1ccc2c(NCCNc3nc(Nc4ccccc4)nc(Nc4ccccc4)n3)ccnc2c1 [SM 129]	–	DMSO
COc1cc(Nc2nc(NC(C)CNc3ccnc4cc(Cl)ccc34)nc(N3CCOCC3)n2)cc(OC)c1 (centres unmarked) [SM 130]	–	DMSO
Clc1ccc2c(NCCNc3nc(Cl)nc(NCCNc4ccnc5cc(Cl)ccc45)n3)ccnc2c1 [SM 133]	–	DMSO
Clc1ccc2c(NCCNc3nc(Cl)nc(Nc4ccccc4)n3)ccnc2c1 [SM 136]	–	DMSO
CCN(CC)c1nc(Cl)nc(NCCNc2ccnc3cc(Cl)ccc23)n1 [SM 137]	–	DMSO
Clc1ccc2c(NCCNc3nc(N4CCOCC4)nc(N4CCOCC4)n3)ccnc2c1 [SM 142]	–	DMSO
CC(CNc1ccnc2cc(Cl)ccc12)Nc1nc(N2CCOCC2)nc(N2CCOCC2)n1 (centres unmarked) [SM 143]	–	DMSO
Cc1ccccc1Nc1nc(NCCNc2ccnc3cc(Cl)ccc23)nc(Nc2ccccc2C)n1 [SM 144]	–	DMSO
Cc1ccccc1Nc1nc(Nc2ccccc2C)nc(NC(C)CNc2ccnc3cc(Cl)ccc23)n1 (centres unmarked) [SM 146]	–	DMSO

Structure (SMILES)	SOLUBILITY [1]	SOLUBILITY (solvent named, Table 3)
COc1ccc(Nc2nc(NCCNc3ccnc4cc(Cl)ccc34)nc(N3CCOCC3)n2)cc1 [SM 332]	–	DMSO
Fc1ccc(Nc2nc(NCCNc3ccnc4cc(Cl)ccc34)nc(N3CCOCC3)n2)cc1 [SM 334]	–	DMSO
CCc1ccc(Nc2nc(NCCNc3ccnc4cc(Cl)ccc34)nc(N3CCOCC3)n2)cc1 [SM 335]	–	DMSO
Clc1ccc2c(NCCNc3nc(Nc4ccccc4)nc(N4CCOCC4)n3)ccnc2c1 [SM 336]	–	DMSO
COc1ccc(Nc2nc(NCCCNc3ccnc4cc(Cl)ccc34)nc(N3CCOCC3)n2)cc1 [SM 337]	–	DMSO
Fc1ccc(Nc2nc(NCCCNc3ccnc4cc(Cl)ccc34)nc(N3CCOCC3)n2)cc1 [SM 339]	–	DMSO
CCc1ccc(Nc2nc(NCCCNc3ccnc4cc(Cl)ccc34)nc(N3CCOCC3)n2)cc1 [SM 340]	–	DMSO
Clc1ccc2c(NCCCNc3nc(Nc4ccccc4)nc(N4CCOCC4)n3)ccnc2c1 [SM 341]	–	DMSO
OCCNc1nc(NCCCCNc2ccnc3cc(Cl)ccc23)nc(N2CCOCC2)n1 [SM 345]	–	DMSO
OCCCNc1nc(NCCCCNc2ccnc3cc(Cl)ccc23)nc(N2CCOCC2)n1 [SM 349]	–	DMSO
OCCCNc1nc(NCCNc2ccnc3cc(Cl)ccc23)nc(N2CCOCC2)n1 [SM 350]	–	DMSO
OCCCNc1nc(NCCCNc2ccnc3cc(Cl)ccc23)nc(N2CCOCC2)n1 [SM 351]	–	DMSO
OCCNc1nc(NCCNc2ccnc3cc(Cl)ccc23)nc(N2CCOCC2)n1 [SM 352]	–	DMSO
OCCNc1nc(NCCCNc2ccnc3cc(Cl)ccc23)nc(N2CCOCC2)n1 [SM 353]	–	DMSO
COc1ccc(Nc2nc(NCCCCNc3ccnc4cc(Cl)ccc34)nc(N3CCOCC3)n2)cc1 [SM 356]	–	DMSO
Fc1ccc(Nc2nc(NCCCCNc3ccnc4cc(Cl)ccc34)nc(N3CCOCC3)n2)cc1 [SM 357]	–	DMSO
CCc1ccc(Nc2nc(NCCCCNc3ccnc4cc(Cl)ccc34)nc(N3CCOCC3)n2)cc1 [SM 358]	–	DMSO
Clc1ccc2c(NCCCCNc3nc(Nc4ccccc4)nc(N4CCOCC4)n3)ccnc2c1 [SM 359]	–	DMSO
OCCCCNc1nc(NCCNc2ccnc3cc(Cl)ccc23)nc(N2CCOCC2)n1 [SM 360]	–	DMSO
OCCCCNc1nc(NCCCNc2ccnc3cc(Cl)ccc23)nc(N2CCOCC2)n1 [SM 361]	–	DMSO
OCCCCNc1nc(NCCCCNc2ccnc3cc(Cl)ccc23)nc(N2CCOCC2)n1 [SM 362]	–	DMSO
OCCNc1nc(NCCNc2ccnc3cc(Cl)ccc23)nc(N2CCCCC2)n1 [SM 365]	–	DMSO
OCCCNc1nc(NCCNc2ccnc3cc(Cl)ccc23)nc(N2CCCCC2)n1 [SM 370]	–	DMSO

Structure (SMILES)	SOLUBILITY [1]	SOLUBILITY (solvent named, Table 3)
OCCCNc1nc(NCCCCNc2ccnc3cc(Cl)ccc23)nc(N2CCCCC2)n1 [SM 372]	–	DMSO
OCCCCNc1nc(NCCNc2ccnc3cc(Cl)ccc23)nc(N2CCCCC2)n1 [SM 373]	–	DMSO
OCCCCNc1nc(NCCCCNc2ccnc3cc(Cl)ccc23)nc(N2CCCCC2)n1 [SM 375]	–	DMSO
Cc1cc(NCCCNc2ccnc3cc(Cl)ccc23)nc(Cl)n1 [SM 484A]	–	DMSO
Cc1cc(Cl)nc(NCCCNc2ccnc3cc(Cl)ccc23)n1 [SM 484B]	–	DMSO
Cc1cc(NCCCNc2ccnc3cc(Cl)ccc23)nc(N2CCCCC2)n1 [SM 485]	–	DMSO
Cc1cc(Cl)nc(NCCNc2ccnc3cc(Cl)ccc23)n1 [SM 488B]	–	DMSO
Cc1cc(NCCNc2ccnc3cc(Cl)ccc23)nc(N2CCOCC2)n1 [SM 489]	–	DMSO
Cc1cc(NCCNc2ccnc3cc(Cl)ccc23)nc(N2CCCCC2)n1 [SM 490]	–	DMSO
Cc1cc(NCCNc2ccnc3cc(Cl)ccc23)nc(N2CCN(C)CC2)n1 [SM 491]	–	DMSO
Cc1cc(NCCCNc2ccnc3cc(Cl)ccc23)nc(N2CCOCC2)n1 [SM 493]	–	DMSO
Cc1cc(NCCCNc2ccnc3cc(Cl)ccc23)nc(N2CCN(C)CC2)n1 [SM 494]	–	DMSO
CCN1CCN(c2nc(C)cc(NCCCNc3ccnc4cc(Cl)ccc34)n2)CC1 [SM 497]	–	DMSO
Cc1cc(NCCCCNc2ccnc3cc(Cl)ccc23)nc(Cl)n1 [SM 498A]	–	DMSO
Cc1cc(Cl)nc(NCCCCNc2ccnc3cc(Cl)ccc23)n1 [SM 498B]	–	DMSO
Cc1cc(NCCCCNc2ccnc3cc(Cl)ccc23)nc(N2CCCCC2)n1 [SM 499]	–	DMSO
Cc1cc(NCCCCNc2ccnc3cc(Cl)ccc23)nc(N2CCOCC2)n1 [SM 500]	–	DMSO
Cc1cc(NCCCCNc2ccnc3cc(Cl)ccc23)nc(N2CCN(C)CC2)n1 [SM 501]	–	DMSO
CCN1CCN(c2nc(C)cc(NCCCCNc3ccnc4cc(Cl)ccc34)n2)CC1 [SM 502]	–	DMSO
Cc1cc(NCCCCCCNc2ccnc3cc(Cl)ccc23)nc(Cl)n1 [SM 504A]	–	DMSO
Cc1cc(Cl)nc(NCCCCCCNc2ccnc3cc(Cl)ccc23)n1 [SM 504B]	–	DMSO
Cc1cc(NCCCCCCNc2ccnc3cc(Cl)ccc23)nc(N2CCCCC2)n1 [SM 505]	–	DMSO
Cc1cc(NCCCCCCNc2ccnc3cc(Cl)ccc23)nc(N2CCOCC2)n1 [SM 506]	–	DMSO

Structure (SMILES)	SOLUBILITY [1]	SOLUBILITY (solvent named, Table 3)
Cc1cc(NCCCCCCNc2ccnc3cc(Cl)ccc23)nc(N2CCN(C)CC2)n1 [SM 507]	–	DMSO
Clc1ccc2c(NCCNc3cc(Cl)nc(Cl)n3)ccnc2c1 [SM 695A]	–	DMSO
Clc1ccc2c(NCCNc3nc(Cl)cc(Cl)n3)ccnc2c1 [SM 695B]	–	DMSO
Clc1ccc2c(NCCNc3cc(Cl)nc(N4CCOCC4)n3)ccnc2c1 [SM 696]	–	DMSO
Clc1ccc2c(NCCNc3cc(Cl)nc(N4CCCCC4)n3)ccnc2c1 [SM 697]	–	DMSO
Clc1ccc2c(NCCNc3nc(Cl)cc(N4CCCCC4)n3)ccnc2c1 [SM 699]	–	DMSO
Clc1ccc2c(NCCNc3nc(Cl)cc(N4CCOCC4)n3)ccnc2c1 [SM 700]	–	DMSO
CN1CCN(c2nc(Cl)cc(NCCNc3ccnc4cc(Cl)ccc34)n2)CC1 [SM 701]	–	DMSO
CCN1CCN(c2nc(Cl)cc(NCCNc3ccnc4cc(Cl)ccc34)n2)CC1 [SM 702]	–	DMSO
CN1CCN(c2cc(Cl)nc(NCCNc3ccnc4cc(Cl)ccc34)n2)CC1 [SM 703]	–	DMSO
CCN1CCN(c2cc(Cl)nc(NCCNc3ccnc4cc(Cl)ccc34)n2)CC1 [SM 704]	–	DMSO
Clc1ccc2c(NCCCNc3cc(Cl)nc(Cl)n3)ccnc2c1 [SM 710A]	–	DMSO
Clc1ccc2c(NCCCNc3nc(Cl)cc(Cl)n3)ccnc2c1 [SM 710B]	–	DMSO
Clc1ccc2c(NCCCNc3cc(Cl)nc(N4CCCCC4)n3)ccnc2c1 [SM 711]	–	DMSO
Clc1ccc2c(NCCCNc3cc(Cl)nc(N4CCOCC4)n3)ccnc2c1 [SM 712]	–	DMSO
CN1CCN(c2nc(Cl)cc(NCCCNc3ccnc4cc(Cl)ccc34)n2)CC1 [SM 713]	–	DMSO
CCN1CCN(c2nc(Cl)cc(NCCCNc3ccnc4cc(Cl)ccc34)n2)CC1 [SM 714]	–	DMSO
Clc1ccc2c(NCCCNc3nc(Cl)cc(N4CCCCC4)n3)ccnc2c1 [SM 715]	–	DMSO
Clc1ccc2c(NCCCNc3nc(Cl)cc(N4CCOCC4)n3)ccnc2c1 [SM 716]	–	DMSO
CN1CCN(c2cc(Cl)nc(NCCCNc3ccnc4cc(Cl)ccc34)n2)CC1 [SM 717]	–	DMSO
